For 14 compounds, half-life and K obs / 1 results are on record in ChEMBL document CHEMBL1127646, “Mechanism-based isocoumarin inhibitors for blood coagulation serine proteases. Effect of the 7-substituent in 7-amino-4-chloro-3-(isothioureidoalkoxy)isocoumarins on inhibitory and anticoagulant potency” (J Med Chem, 1994).

Peptide text beside a SMILES is read from it. * marks the point of attachment. Dansyl = CN(C)c1cccc2c(S(=O)(=O)*)cccc12; CH2Cl = ClC*

Data set [1] is described as follows: Hydrolysis half life (t1/2). Type of data set: ADME.
Data set [2] has as its target Prothrombin (Homo sapiens) (UniProt P00734). The data set can be described thus: Inhibition of human thrombin (inhibitor concentration 1.2-54 uM).
Another data set addresses Prothrombin (Bos taurus) (UniProt P00735). The data set can be described thus: Inhibition of bovine thrombin (inhibitor concentration 1.2-54 uM).
Data set [3] concerns the target Coagulation factor X (Homo sapiens) (UniProt P00742). Kind of data set: Inhibition of human factor Xa (inhibitor concentration were 3.6-44 uM).
The target in data set [4] is Coagulation factor IX (Homo sapiens) (UniProt P00740). The data set can be described thus: Inhibition of porcine factor IXa at 8.3-82 uM. Particulars: Sus scrofa, target entry is the homologue from another species.
For data set [5], the target named is T1, Coagulation factor VII (Homo sapiens) (UniProt P08709).
T1 sequence (whole entry): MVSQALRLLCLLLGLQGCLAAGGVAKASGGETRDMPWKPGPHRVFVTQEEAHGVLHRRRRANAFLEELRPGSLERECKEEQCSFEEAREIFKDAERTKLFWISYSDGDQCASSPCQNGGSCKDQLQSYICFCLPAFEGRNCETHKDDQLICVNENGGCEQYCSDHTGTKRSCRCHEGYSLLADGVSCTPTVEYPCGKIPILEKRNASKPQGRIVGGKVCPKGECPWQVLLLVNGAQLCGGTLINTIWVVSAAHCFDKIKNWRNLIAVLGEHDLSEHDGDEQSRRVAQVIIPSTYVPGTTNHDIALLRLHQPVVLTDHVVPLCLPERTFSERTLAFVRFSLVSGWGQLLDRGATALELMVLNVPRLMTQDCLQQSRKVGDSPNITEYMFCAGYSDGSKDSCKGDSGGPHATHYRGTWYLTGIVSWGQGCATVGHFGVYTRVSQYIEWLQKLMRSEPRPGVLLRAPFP
The data set can be described thus: Inhibition of human coagulation factor VII at 7.2-44 uM.

Sequence of Coagulation factor X (Homo sapiens) (P00742 41-179 limits assumed): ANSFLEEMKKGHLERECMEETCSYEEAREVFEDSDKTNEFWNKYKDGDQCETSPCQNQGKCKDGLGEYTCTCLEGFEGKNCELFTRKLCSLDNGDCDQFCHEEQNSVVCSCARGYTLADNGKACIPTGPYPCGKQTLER
Sequence of Coagulation factor X (Homo sapiens) (P00742 235-488 limits assumed): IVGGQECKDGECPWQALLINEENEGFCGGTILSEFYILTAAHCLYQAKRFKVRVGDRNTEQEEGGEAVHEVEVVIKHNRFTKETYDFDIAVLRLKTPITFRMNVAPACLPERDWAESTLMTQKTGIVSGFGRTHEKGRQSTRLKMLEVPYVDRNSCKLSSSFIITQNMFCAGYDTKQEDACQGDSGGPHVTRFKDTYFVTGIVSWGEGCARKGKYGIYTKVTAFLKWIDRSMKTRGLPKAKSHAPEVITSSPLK

One may read the half-life as the time in which the quantity being followed falls by half. A lower half-life goes with rapid decline. For the compound `N=C(N)SCCCOc1oc(=O)c2cc(NC(=O)[C@@H](N)Cc3ccccc3)ccc2c1Cl`, the half-life in data set [1] was 42 min. The K obs / 1 in data set [2] was 220 M⁻¹ s⁻¹; on Prothrombin (Bos taurus), 180 M⁻¹ s⁻¹.

Turning to `C[C@H](NC(=O)OC(C)(C)C)C(=O)N[C@@H](C)C(=O)Nc1ccc2c(Cl)c(OCCSC(=N)N)oc(=O)c2c1`, the half-life in data set [1] came to 40 min. Besides, the K obs / 1 stood at 970 M⁻¹ s⁻¹ in data set [2] and 1530 M⁻¹ s⁻¹ at Prothrombin (Bos taurus).

In data set [1], `N=C(N)SCCCOc1oc(=O)c2cc(NC(=O)[C@H](N)Cc3ccccc3)ccc2c1Cl` had a half-life of 46 min. For the same compound, the K obs / 1 in data set [2] amounted to 470 M⁻¹ s⁻¹; at Prothrombin (Bos taurus) it was 400 M⁻¹ s⁻¹.

`N=C(N)SCCCOc1oc(=O)c2cc(NC(=O)NCc3ccccc3)ccc2c1Cl`: the half-life in data set [1] was 148 min. Also, the K obs / 1 in data set [2] came out at 700 M⁻¹ s⁻¹; at Prothrombin (Bos taurus) it was 420 M⁻¹ s⁻¹.

Consider `N=C(N)SCCCOc1oc(=O)c2cc(NC(=O)CCc3ccccc3)ccc2c1Cl`, for which, in data set [1], the half-life was 66 min. The results for the K obs / 1 (in data set [2]; on Prothrombin (Bos taurus)) were 630 M⁻¹ s⁻¹ and 820 M⁻¹ s⁻¹, respectively.

Turning to `CC(C)NC(=O)Nc1ccc2c(Cl)c(OCCSC(=N)N)oc(=O)c2c1`, the K obs / 1 in data set [2] is 5000 M⁻¹ s⁻¹; at Prothrombin (Bos taurus), 4100 M⁻¹ s⁻¹.

Take `C[C@H](N)C(=O)N[C@@H](C)C(=O)Nc1ccc2c(Cl)c(OCCSC(=N)N)oc(=O)c2c1`: the K obs / 1 stood at 1490 M⁻¹ s⁻¹ in data set [3], 880 M⁻¹ s⁻¹ in data set [2] and 1070 M⁻¹ s⁻¹ at Prothrombin (Bos taurus).

With `CC(C)(C)OC(=O)N[C@H](Cc1ccccc1)C(=O)Nc1ccc2c(Cl)c(OCCCSC(=N)N)oc(=O)c2c1`, the half-life in data set [1] worked out at 55 min. The K obs / 1 was 520 M⁻¹ s⁻¹ in data set [2] and 330 M⁻¹ s⁻¹ at Prothrombin (Bos taurus).

As for `CN(C)c1cccc2c(S(=O)(=O)N[C@@H](CCC(=O)O)C(=O)NCC(=O)N[C@@H](CCCN=C(N)N)C(=O)CCl)cccc12` (Dansyl-Glu-Gly-Arg-CH2Cl), the K obs / 1 was determined as 180 M⁻¹ s⁻¹ in data set [4] and 20 M⁻¹ s⁻¹ in data set [5].

The compound `CC(C)(C)OC(=O)N[C@@H](Cc1ccccc1)C(=O)Nc1ccc2c(Cl)c(OCCCSC(=N)N)oc(=O)c2c1` showed a half-life in data set [1] of 51 min. The K obs / 1 in data set [2] was 230 M⁻¹ s⁻¹; at Prothrombin (Bos taurus), 190 M⁻¹ s⁻¹.

In data set [1], `CC(C)(C)OC(=O)N[C@@H](Cc1ccccc1)C(=O)Nc1ccc2c(Cl)c(OCCSC(=N)N)oc(=O)c2c1` gave a half-life of 39 min. The K obs / 1 in data set [2] was found to be 1090 M⁻¹ s⁻¹; on Prothrombin (Bos taurus), 1040 M⁻¹ s⁻¹.

In data set [1], `CC(=O)Nc1ccc2c(Cl)c(OCCCSC(=N)N)oc(=O)c2c1` gave a half-life of 68 min. Moreover, the K obs / 1 turned out to be 310 M⁻¹ s⁻¹ in data set [2] and 420 M⁻¹ s⁻¹ at Prothrombin (Bos taurus).

In turn, `CC(C)(C)OC(=O)N[C@H](Cc1ccccc1)C(=O)Nc1ccc2c(Cl)c(OCCSC(=N)N)oc(=O)c2c1` showed a half-life in data set [1] of 42 min. Also, the K obs / 1 in data set [3] was found to be 1620 M⁻¹ s⁻¹; in data set [2], 1140 M⁻¹ s⁻¹; at Prothrombin (Bos taurus), 1090 M⁻¹ s⁻¹.

For `N=C(N)SCCOc1oc(=O)c2cc(NC(=O)Nc3cccc4ccccc34)ccc2c1Cl`, the K obs / 1 turned out to be 5800 M⁻¹ s⁻¹ in data set [2] and 17500 M⁻¹ s⁻¹ at Prothrombin (Bos taurus).
